Experiments:
5-lipoxygenase = target: T1, 5-lipoxygenase (Rattus norvegicus, UniProt P12527); test: 5-LIPOX: inhibition of Ca++ ionophore (A23187) induced release of 5-lipoxygenase products (leukotriene B4 and 5-HETE) from [14C]arachidonic acid pre-labelled rat peritoneal neutrophils; assay type: cell-based; conditions: A23187-induced release of leukotriene B4 and 5-HETE, graphically from dose-response curves, read-out: 5-LIPOX (concentration of test compound causing 50% inhibition of control response)
T1 sequence (P12527 1-673): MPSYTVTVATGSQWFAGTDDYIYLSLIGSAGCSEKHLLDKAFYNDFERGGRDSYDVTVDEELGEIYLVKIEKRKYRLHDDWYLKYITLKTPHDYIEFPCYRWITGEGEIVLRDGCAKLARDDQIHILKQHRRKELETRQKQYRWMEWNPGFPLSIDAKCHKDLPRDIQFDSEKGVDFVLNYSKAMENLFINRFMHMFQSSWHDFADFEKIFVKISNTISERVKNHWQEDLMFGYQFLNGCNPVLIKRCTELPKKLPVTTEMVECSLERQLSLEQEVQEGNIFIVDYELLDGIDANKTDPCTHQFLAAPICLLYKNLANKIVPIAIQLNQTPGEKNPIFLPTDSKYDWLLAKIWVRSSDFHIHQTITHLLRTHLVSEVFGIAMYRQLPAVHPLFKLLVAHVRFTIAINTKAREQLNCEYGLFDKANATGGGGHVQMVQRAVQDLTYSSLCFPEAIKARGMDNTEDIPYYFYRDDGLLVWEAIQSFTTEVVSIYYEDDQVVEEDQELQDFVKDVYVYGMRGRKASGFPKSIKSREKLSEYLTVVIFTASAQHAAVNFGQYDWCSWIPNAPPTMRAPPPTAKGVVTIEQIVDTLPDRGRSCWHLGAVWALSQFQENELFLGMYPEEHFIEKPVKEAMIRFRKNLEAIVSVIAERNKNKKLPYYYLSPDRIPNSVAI
Text: Inhibition of the Ca^++ ionophore (A23187) induced release of 5-lipoxygenase products, leukotriene B4 and 5-HETE, from [^14 C]arachidonic acid pre-labelled rat peritoneal neutrophils. Assayed by a modification of the method reported by Ahnfelt-Ronne et al [Biochemical Pharmacology, Vol. 31, No. 16, pp 2619-2624 (1982)]. Data presented in Table II are micromolar concentrations of test compound causing 50% inhibition of control response determined graphically from dose-response curves.

LTD4 receptor = target: T2, LTD4 receptor (Cavia porcellus, UniProt Q2NNR5); test: LTD4 RECEPTOR: inhibition of specific binding of [3H]-LTD4 to a membrane preparation of guinea-pig lung tissue; conditions: [3H]-LTD4, guinea-pig lung membranes; for IC50: graphically from dose-response curves, read-out: LTD4 receptor (concentration of tested compound causing 50% inhibition of specific binding)
T2 construct: membrane preparation of guinea-pig lung tissue; from tissue; host or cells: guinea-pig lung membranes
T2 sequence (Q2NNR5 1-340): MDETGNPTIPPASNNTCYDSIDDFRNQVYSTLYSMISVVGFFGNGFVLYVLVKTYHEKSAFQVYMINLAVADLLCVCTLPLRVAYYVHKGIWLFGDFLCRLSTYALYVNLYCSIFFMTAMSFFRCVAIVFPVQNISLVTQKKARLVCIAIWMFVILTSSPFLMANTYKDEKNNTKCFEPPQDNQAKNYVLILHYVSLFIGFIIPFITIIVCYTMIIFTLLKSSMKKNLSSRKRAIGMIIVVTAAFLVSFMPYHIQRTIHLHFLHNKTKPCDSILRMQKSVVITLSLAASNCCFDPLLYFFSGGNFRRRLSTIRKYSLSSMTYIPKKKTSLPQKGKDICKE
Description: Inhibition of the specific binding of [^3 H]-LTD4 to a membrane preparation of guinea-pig lung tissue was assayed by a modification of a method reported by Bruns et al [Life Sciences, Vol. 33, pp. 645-653 (1983)]and the data presented in Table II are micromolar concentrations of the tested compound causing 50% ihibition of specific binding determined graphically from dose-response curves.

| Compound | IC50 (5-lipoxygenase) [µM] | IC50 (LTD4 receptor) [µM] | LTD4 receptor, remark printed beside the value (LTD4 receptor; remark in words) |
| --- | --- | --- | --- |
| c1cnc2c(c1)CCCC2Sc1nc2ccccc2s1 (stereo not shown) [Example 1, 8-(2-benzothiazolylthio)-5,6,7,8-tetrahydroquinoline] | 1.8 | 10 |  |
| COc1ccc2nc(SC3CCCc4cccnc43)[nH]c2c1 (stereo not shown) [Example 2, 8-(6-methoxy-1H-benzimidazol-2-ylthio)-5,6,7,8-tetrahydroquinoline] | 58 |  |  |
| c1cnc2c(c1)CCCC2Sc1nc2ccccc2[nH]1 (stereo not shown) [Example 3, 8-(1H-benzimidazol-2-ylthio)-5,6,7,8-tetrahydroquinoline] | 35.1 | > 100 |  |
| CCOC(=O)Cc1ccc2[nH]c(SC3CCCc4cccnc43)nc2c1 (stereo not shown) [Example 4, ethyl 2-[(5,6,7,8-tetrahydro-8-quinolinyl)-thio]-1H-benzimidazole-5-acetate] | 20 |  |  |
| O=[N+]([O-])c1ccc2nc(SC3CCCc4cccnc43)[nH]c2c1 (stereo not shown) [Example 5, 8-(6-nitro-1H-benzimidazol-2-ylthio)-5,6,7,8-tetrahydroquinoline] | 6.6 | > 100 |  |
| Cc1ccc2nc(SC3CCCc4cccnc43)[nH]c2c1 (stereo not shown) [Example 6, 8-(6-methyl-1H-benzimidazol-2-ylthio)-5,6,7,8-tetrahydroquinoline] | 5 | 74 |  |
| Clc1cc2nc(SC3CCCc4cccnc43)[nH]c2cc1Cl (stereo not shown) [Example 7, 8-(5,6-dichloro-1H-benzimidazol-2-ylthio)-5,6,7,8-tetrahydroquinoline] | 4.2 |  |  |
| Clc1ccc2nc(SC3CCCc4cccnc43)[nH]c2c1 (stereo not shown) [Example 8, 8-(6-chloro-1H-benzimidazol-2-ylthio)-5,6,7,8-tetrahydroquinoline] | 1.9 | 6.3 |  |
| c1cnc2c(c1)CCCC2Sc1nc2ccccc2o1 (stereo not shown) [Example 9, 8-(2-benzoxazolylthio)-5,6,7,8-tetrahydroquinoline] | 16.9 | > 100 |  |
| COC(=O)Cc1ccc2oc(SC3CCCc4cccnc43)nc2c1 (stereo not shown) [Example 10, methyl 2-[(5,6,7,8-tetrahydro-8-quinolinyl)-thio]benzoxazole-5-acetate] | 14.1 | 12 |  |
| Clc1ccc2sc(SC3CCCc4cccnc43)nc2c1 (stereo not shown) [Example 11, 8-[(5-chloro-2-benzothiazolyl)thio]-5,6,7,8-tetrahydroquinoline] | 1.5 | 100 |  |
| Clc1ccc2nc(SC3CCCc4cccnc43)sc2c1 (stereo not shown) [Example 12] | 2.6 | 8.9 |  |
| CCOc1ccc2nc(SC3CCCc4cccnc43)sc2c1 (stereo not shown) [Example 13, 8-[(6-ethoxy-2-benzothiazolyl)thio]-5,6,7,8-tetrahydroquinoline] | 1.2 | 9 |  |
| O=c1[nH]c(SC2CCCc3cccnc32)nc2ccccc12 (stereo not shown) [Example 14, 2-[(5,6,7,8-tetrahydroquinoline-8-yl)thio]-4(3H)-quinazolinone] | > 100 | > 100 |  |
| Cc1ccc2nc(SC3CCCc4cccnc43)sc2c1 (stereo not shown) [Example 15, 8-[(6-methyl-2-benzothiazolyl)thio]-5,6,7,8-tetrahydroquinoline] | 2.3 | 9.5 |  |
| O=[N+]([O-])c1ccc2sc(SC3CCCc4cccnc43)nc2c1 (stereo not shown) [Example 16, 8-[(5-nitro-2-benzothiazolyl)thio]-5,6,7,8-tetrahydroquinoline] | 2 | > 100 |  |
| Cc1ccc2sc(SC3CCCc4cccnc43)nc2c1 (stereo not shown) [Example 17, 8-[(5-methyl-2-benzothiazolyl)thio]-5,6,7,8-tetrahydroquinoline] | 1.5 | 7.1 |  |
| Clc1cc2nc(SC3CCCc4cccnc43)sc2cc1Cl (stereo not shown) [Example 18, 8-[(5,6-dichloro-2-benzothiazolyl)thio]-5,6,7,8-tetrahydroquinoline] | 45 | 100 |  |
| CCSc1ccc2nc(SC3CCCc4cccnc43)sc2c1 (stereo not shown) [Example 19, 8-[(6-ethylthio-2-benzothiazolyl)thio]-5,6,7,8-tetrahydroquinoline] | 1.1 | 1.7 |  |
| O=[N+]([O-])c1ccc2nc(SC3CCCc4cccnc43)sc2c1 (stereo not shown) [Example 20] | 4 | > 100 |  |
| FC(F)(F)c1ccc2sc(SC3CCCc4cccnc43)nc2c1 (stereo not shown) [Example 21, 8-[(5-trifluoromethyl-2-benzothiazolyl)thio]-5,6,7,8-tetrahydroquinoline] | 2.6 | 18 |  |
| Clc1cc(Cl)c2nc(SC3CCCc4cccnc43)sc2c1 (stereo not shown) [Example 22, 8-[(4,6-dichloro-2-benzothiazolyl)thio]-5,6,7,8-tetrahydroquinoline] | 22 | > 100 |  |
| Clc1cccc2sc(SC3CCCc4cccnc43)nc12 (stereo not shown) [Example 23] | 12 | 33 |  |
| Cc1cccc2sc(SC3CCCc4cccnc43)nc12 (stereo not shown) [Example 24, 8-[(4-methyl-2-benzothiazolyl)thio]-5,6,7,8-tetrahydroquinoline] | 3.5 | 14 |  |
| c1ccc(-c2nc(SC3CCCc4cccnc43)[nH]c2-c2ccccc2)cc1 (stereo not shown) [Example 25, 8-(4,5-diphenyl-1H-imidazol-2-ylthio)-5,6,7,8-tetrahydroquinoline] | 3 | > 100 | pot. |
| Cn1ccnc1SC1CCCc2cccnc21 (stereo not shown) [Example 26, 8-(1-methylimidazol-2-ylthio)-5,6,7,8-tetrahydroquinoline] | > 100 | > 100 |  |
| c1cnc2c(c1)CCCC2Sc1nccs1 (stereo not shown) [Example 27, 8-(2-thiazolylthio)-5,6,7,8-tetrahydroquinoline] | 25.1 | > 100 |  |
